Eight compounds from PubChem BioAssay (NCI) can be followed below.

Common to all, as to test: NCI-60 cell line screen, 48 h
Test [1] deals with EKVX NSCLC.
Test [2] relates to SF-295 CNS.
Test [3] has as its system SK-MEL-28 melanoma.
The subject of test [4] is KM12 colon.
For test [5], the system named is ACHN renal.
For test [6], the system named is OVCAR-5 ovarian.
Test [7] concerns NCI-H226 lung.
In test [8] the test system is PC-3 prostate.
In test [9] the test system is HCC-2998 colon.
For test [10], the system named is HL-60(TB) leukemia.

Molecules are shown by their SMILES. Where “and” joins values, the source holds several entries; their conditions need not be identical. Equal values may be shown once.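 In this assay, cells in 96-well plates receive the compound at five concentrations for 48 hours. Endpoints are linearly interpolated between the surrounding concentrations. Abbreviation: GI50, concentration required for 50% inhibition of growth. TGI: total growth inhibition.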

As for `CCCCCCNCCCNc1c2ccccc2nc2cccc([N+](=O)[O-])c12`, the GI50 in test [1] was 185 nM; in test [2] it was 26.3 nM; in [3] it was 53.4 nM; in [5] it was 15.1 nM; in test [6], 20.7 nM; in test [7], 22.8 nM. Besides, the GI50 in test [10] was 21.6 nM. Further, the TGI was 0.12 µM and 0.812 µM in [1]; 59 nM and 422 nM in test [2]; 323 nM and 375 nM in [3]; 35.2 nM and 33.5 nM in test [4]; 44.6 nM and 85.8 nM in [5]; 0.194 µM and 0.151 µM in test [6]. Further, the TGI in test [7] was 0.274 µM and 0.148 µM; in test [8], 87.8 nM and 393 nM; in [9] it was 21 nM.
For `CCN(CC)CC[n+]1cc2cc(OC)c(OC)cc2c2ccc3cc4c(cc3c21)OCO4`, the GI50 is 967 nM in test [1]; 429 nM in test [2]; 1480 nM in test [3]; 515 nM in test [4]; 1250 nM in test [5]; 1010 nM in [6]. The GI50 was 1350 nM in [7], 395 nM in test [8], 725 nM in test [9] and 1420 nM in test [10]. Further, the TGI in test [1] was 4.04 µM; in test [2], 2360 nM; in test [3], 2930 nM; in [4] it was 2460 nM; in [5], 4070 nM; in test [6] it was 3.17 µM. For the same compound, the TGI in test [7] turned out to be 3.24 µM; in test [8] it was 2250 nM; in test [9], 2150 nM; in test [10] it was 4.69 µM.
Take `CN1CCN(CC(=O)N2c3cccc4cccc(c34)N(C(=O)CN3CCN(C)CC3)C2c2cn(-c3ccccc3)nc2-c2cccc([N+](=O)[O-])c2)CC1`: the GI50 was 2840 nM in test [1]; 1900 nM in test [2]; 1810 nM in test [3]; 1850 nM in [4]; 2220 nM in test [5]; 2460 nM in test [6]. The GI50 in [7] is 1830 nM; in [8], 2800 nM; in test [9], 1540 nM; in test [10] it was 1890 nM. For the same compound, the TGI in test [1] was determined as 11.5 µM; in test [2] it was 3730 nM; in test [3], 3360 nM; in test [4] it was 3430 nM; in test [5] it was 5330 nM; in [6] it was 7.53 µM. Besides, the TGI was 4.8 µM in [7], 10400 nM in test [8], 3010 nM in [9] and 3.75 µM in test [10].
Turning to `Nc1ncnc2c1ncn2C1OC(COC2C(CO)OC(OC(C(=O)O)C(O)C(OP(=O)(O)O)C(O)C(=O)O)C(O)C2O)C(O)C1O` (stereo not given), the TGI is over 100 µM in [1]; over 100000 nM in test [2]; over 100000 nM in [3]; over 100000 nM in [4]; over 100000 nM in test [5]; over 100 µM in test [6]. The TGI is over 100 µM in test [7], over 100000 nM in test [8], over 100000 nM in [9] and over 100 µM in [10].
For `O=C(O)CCSC(=S)Nc1ccc([N+](=O)[O-])cc1`, the TGI in test [1] was over 100 µM; in test [2], over 100000 nM; in test [3] it was over 100000 nM; in test [4] it was over 100000 nM; in test [5] it was over 83000 nM; in test [6] it was over 100 µM. Moreover, the TGI in test [7] was over 100 µM; in test [8] it was over 100000 nM; in test [9] it was over 100000 nM; in [10], 48.6 µM.
Take `COc1cc2c3c(n(CCCN4CCCC(O)C4)c(=O)c2cc1OC)-c1cc2c(cc1C3=O)OCO2` (stereo not given): the GI50 in test [1] is 1260 nM; in [2] it was under 5 nM; in [3] it was 885 nM; in test [4] it was 333 nM; in test [5] it was under 5 nM; in test [6], 931 nM. The GI50 in test [7] is 1420 nM; in [8], 87.9 nM; in test [9], 76.3 nM; in [10], 597 nM. Besides, the TGI in test [1] was determined as 2.54 µM; in [2], 2650 nM; in test [3] it was 2280 nM; in [4] it was 1490 nM; in test [5], 320 nM; in test [6], 1.71 µM. The TGI in [7] was 4.31 µM; in test [8], 1150 nM; in [9] it was 1050 nM; in test [10], 1.32 µM.
For `CC[CH2][Sn]([CH2]CC)([O]C(=O)Cc1ccc(F)cc1)[O][Sn]([CH2]CC)([CH2]CC)[O]C(=O)Cc1ccc(F)cc1`, the GI50 in test [1] is 569 nM; in test [2] it was 587 nM; in [3], 157 nM; in test [4], 702 nM; in test [5] it was 209 nM; in [6], 1440 nM. The GI50 in test [7] was 243 nM; in [8] it was 1000 nM; in test [9], 439 nM; in test [10] it was 88.8 nM. Moreover, the TGI in [1] is 1.99 µM; in test [2], 1570 nM; in test [3], 446 nM; in [4] it was 2060 nM; in [5], 552 nM; in [6], 2.84 µM. Moreover, the TGI was 0.813 µM in test [7], 2160 nM in test [8] and 1700 nM in [9].
Consider `Cc1cc(N(CCOS(C)(=O)=O)CCOS(C)(=O)=O)ccc1C=Nc1ccc(-c2csc(-c3ccc(Br)cc3)n2)cc1`, for which the TGI in test [1] came to 37.7 µM; in [2] it was 50500 nM; in test [3], 99600 nM; in test [4] it was 21600 nM; in test [5], 13800 nM; in test [6], 54.9 µM. Further, the TGI in [7] was 62.3 µM; in test [8], 86800 nM; in [9] it was 31800 nM; in [10], 55.9 µM.
